{"source": "patent US8211483B2", "about": "“Composition comprising starch or dietary fiber from gramineae plant for prevention and treatment of ischemic diseases and degenerative brain disease” (Hypoxi Co., Ltd., priority 2007, dated 2012)", "key": {"[1]": {"system": "SH-SY5Y cells", "experiment": "MTT assay, beta-amyloid-induced cytotoxicity in SH-SY5Y cells", "type": "cell-based, human", "conditions": "15 microM beta-amyloid (alone 60.4%), p<0.05, FIG. 3e; for viability at 250 µg/mL: Homo sapiens, 250 microgram/ml, read-out: cell viability", "method": "To identify the neuroprotective effect of inventive crude extract, starch and total dietary fiber on the cytotoxicity induced by beta-amyloid, which is regarded as one of the main causes of Alzheimer's disease, the following MTT assay was performed by the procedure disclosed in the literature (Hoffman R. M., Cell Biology (Celis J E (Ed.), Vol. 1, pp 369-370, Academic Press, New York, 1994) with minor modification.\nSH-SY5Y cells (human neuroblastoma cell line, ATCC CRL-2266, 4×10^4 cells/300 microliter/well) were seeded onto 48 well plates and incubated in Dulbecco's modified Eagle Medium/F12 90% medium (Invitrogen, USA) supplemented with penicillin G sodium (100 Units/L, Invitrogen, USA), streptomycin sulfate (100 mg/L, Invitrogen, USA) and 10% (w/v) fetal bovine serum (Invitrogen, USA); incubated at 37° C. in 5% CO2-95% air incubator for 48 hours. After changing the media, the cells were treated with beta-amyloid to the final concentrations of 0, 2.5, 7.5 and 25 microM for 24 hours in the absence (designated as Aβ25-35 alone group hereinafter) or presence with inventive starch isolated from Triticum aestivum L. (final concentration: 125 microgram/ml; designated as A25-35+SW group hereinafter) or soluble starch (final concentration: 125 microgram/ml; designated as A25-35+SS group hereinafter) which were made from 50 microgram/ml stock solutions in DMSO (See FIGS. 3a & 3b). After incubation, cells were treated with MTT solution (final concentration of 1 mg/ml) for 2 hours. The dark blue formazan in viable cells was dissolved in DMSO and absorbance at 540 nm was measured by a microplate reader (FLUOstar OPTIMA, BMG LABTECH, GERMANY).\nBased on the above-mentioned result, to further examine the protective effects of the crude extract of Triticum aestivum L. or starches isolated from Gramnieae plants against the beta-amyloid-induced cytotoxicity, the concentration of beta-amyloid was fixed to 25 microM. The crude extract of Triticum aestivum L. (HY6228, shown as HY in FIG. 3c; 250 microgram/ml) and starches isolated from Gramnieae plants (SS, SC, SR and SW; 125 microgram/ml) were added thereto to incubation (See FIG. 3c). We also have examined the cell viability improving effect of total dietary fiber (TDF; 500, 1000 microgram/ml) in the presence of 10 microM of beta-amyloid (See FIG. 3d).\nIn addition, arabinoxylan (AX; 500 microgram/ml), arabinose (Ara; 250 microgram/ml), xylose (Xyl; 250 microgram/ml) and beta-glucan (b-glu; 20 microgram/ml) were added to the media in the presence of 15 microM beta-amyloid (See FIG. 3e)."}, "[2]": {"system": "myocardial infarction-induced rat model", "experiment": "Myocardial infarction-induced rat model (LAD ischemia-reperfusion), oral administration", "type": "in vivo", "conditions": "for size of infarcted area reduced by: 10 mg/kg/day oral, vs control 50.6%, p<0.05, FIG. 5c; for IA (% AAR): 10 mg/kg/day with food from three days before ischemia, control 50.6%, FIG. 5c", "method": "The therapeutic efficacy of inventive starch and total dietary fiber on myocardial infarction was measured in myocardial infarction-induced rat model, using experiment rats prepared in Reference Example 1, in accordance with the procedure disclosed in the literature (Haisong J et al., Circulation, 97, pp 892-899, 1998), with minor modification.\nSD rats prepared in Reference Example 1 were anesthetized with 10 mg/kg ketamine (Yuhan Corp., KOREA) and 5 mg/kg xylazine (Sigma, USA) and intubated endotracheally. The rats were connected to a respirator through a tracheotomy, and the heart was rapidly exteriorized through a left thoracotomy and pericardial incision. The upper region of left coronary artery (LAD) was ligated by passing a 5-0 prolene thread under LAD and tightening polyethylene tubing 50 (PE 50), resulting in ischemia. After 30 min of ischemia, 3 hours of reperfusion followed, after the tightened PE 50 was loosened. After the ischemia-reperfusion, the PE 50 was tightened again to induce ischemia, and then 2 ml of 1% Evans blue dye solution was infused intravenously to circulate whole body. Then the heart was isolated, cut into the width of 2-3 mm after the right atrium and right ventricle of the heart were removed. Then the stained (LV-AAR) and unstained area (AAR) of cross sectioned tissue was measured by using image analysis system (Quantity One 4.2, Bio-Rad, USA) to calculate the area at risk (AAR/LV, %). Then, the tissue was stained with 1% TTC (2,3,5-triphenyltetrazolium chloride, Sigma, USA) at 37° C. for 15 mins, fixed with 10% formalin solution. The infarcted area (IA/LV, %) was determined by measuring necrotic white area (IA) and total left ventricle area (LV). The ratio of IA to AAR of test samples and control group was compared to test efficacy.\nThe inventive starch, total dietary fiber, and representative components of the fiber mixed with food were administered orally, and the size of infarcted area was measured. To determine the proper dose with safety and maximum efficacy at the same time, the minimum dose calculated from the result obtained in Experimental Example 1 was set as a starting point, and the dose was increased according to two-fold increasing method, i.e., 100, 200 and 400 mg/kg.\nThree days before the induction of ischemia, 400 mg/kg/day of HY6228 or inventive starch, or 10 mg/kg/day of inventive total dietary fiber, or 10 mg/kg/day of its components, such as arabinoxylan, beta-glucan, arabinose and xylose, was fed with 20 g of food with free access. After induction of myocardial infarction with 3 hours of reperfusion, the infarcted area was measured, the value of IA (% AAR) was calculated, and then efficacy of the inventive starch and total dietary fiber was compared with each other."}, "[3]": {"system": "vascular dementia-induced rat model", "experiment": "Vascular dementia-induced rat model (BCCAO), water-maze test", "type": "in vivo", "conditions": "50 mg/kg fed for 1 week, FIG. 8b, 8c", "method": "The therapeutic efficacy of inventive starch and total dietary fiber of the present invention on vascular dementia was measured in vascular dementia-induced rat model, using experiment rats prepared in Reference Example 1, in accordance with the procedure disclosed in the literature (Cho K O et al., J. Neurosci. Res., 83, pp 285-291, 2006), with minor modification.\nThe SD rats prepared in Reference Example 1 were anesthetized by inhalation using enflurane (Choongwae Pharm. Corp., KOREA). Two common carotid arteries were exposed by surgery and tied with thread using BCCAO (bilateral common carotid artery occlusion) method to reduce the blood flow rate into brain for 4 weeks. And then water-maze test disclosed in Experimental Example 6 was performed for 5 days.\n7 days after the two common carotid arteries were tied, the rats were started to be fed with HY6228 (200 mg/kg), inventive starch (SW; 200 mg/kg), TDF (50 mg/kg) and arabinoxlyan (50 mg/kg) therewith for 1 week, for which the mean escape latency was measured."}}}
{"compound": "O=C[C@@H](O)[C@H](O)[C@H](O)CO", "note": "[arabinose]", "values": [{"measurement": "viability at 250 µg/mL", "setting": "[1]", "result": 71.1, "unit": "%"}, {"measurement": "size of infarcted area reduced by", "setting": "[2]", "result": 14.2, "unit": "%"}, {"measurement": "IA (% AAR)", "setting": "[2]", "result": 43.4, "unit": "%"}]}
{"compound": "O=C[C@H](O)[C@@H](O)[C@H](O)CO", "note": "[xylose]", "values": [{"measurement": "viability at 250 µg/mL", "setting": "[1]", "result": 72.1, "unit": "%"}, {"measurement": "size of infarcted area reduced by", "setting": "[2]", "result": 16.8, "unit": "%"}, {"measurement": "IA (% AAR)", "setting": "[2]", "result": 42.1, "unit": "%"}]}
{"compound": "arabinoxylan", "values": [{"measurement": "cell viability", "setting": "[1]; 500 microgram/ml", "result": 75.5, "unit": "%"}, {"measurement": "size of infarcted area reduced by", "setting": "[2]", "result": 16.4, "unit": "%"}, {"measurement": "IA (% AAR)", "setting": "[2]", "result": 42.3, "unit": "%"}, {"measurement": "mean escape latency", "setting": "[3]", "result": "reduced the mean escape latency"}]}
{"compound": "beta-glucan", "values": [{"measurement": "cell viability", "setting": "[1]; 20 microgram/ml", "result": 70, "unit": "%"}, {"measurement": "size of infarcted area reduced by", "setting": "[2]", "result": 13.4, "unit": "%"}, {"measurement": "IA (% AAR)", "setting": "[2]", "result": 43.8, "unit": "%"}]}
